According to US20250179066A1, “ZWITTERIONIC ANTIBACTERIAL COMPOUNDS” (Hoffmann-La Roche Inc., priority 2022, published 2025):
Structures can show the parent of a compound that is named as a salt. Where two headings read alike, the source gives them in different places.

Tested on: Acinetobacter baumannii ATCC17961
Test: Antimicrobial susceptibility testing: 90% growth inhibitory concentration (IC90) determination
Format: cell-based
Settings: 90% growth inhibitory concentration against Acinetobacter baumannii ATCC17961, Iso-Sensitest broth, OD 600 nm over 16 h, read-out: ATCC 17961 IC90
In short: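 OD600 monitored each minute over 16 h at 35±2° C for bacteria (~5×10^5 CFU/mL final) in Iso-Sensitest medium with 10-point twofold compound series (e.g. 10-0.0195 μM final). Concentration giving 90% growth inhibition in log phase reported as IC90.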

[1] = Acinetobacter baumannii, ATCC17961, 16 h

Structure (SMILES) | IC90 [1] | IC90
COc1ccc(-n2cc(-c3cnc(C(=O)Nc4ccc(C(=O)N5CCN(C(=O)C6CC[N+](CC(=O)O)(CC7CNC7)CC6)CC5)c(Cl)c4)n3C)c(C(F)(F)F)n2)cn1 (stereo not shown) [Example 82, 2-[1-(azetidin-3-ylmethyl)-4-[4-[2-chloro-4-[[5-[1-(6-methoxy-3-pyridyl)-3-(trifluoromethyl)pyrazol-4-yl]-1-methyl-imidazole-2-carbonyl]amino]benzoyl]piperazine-1-carbonyl]piperidin-1-ium-1-yl]acetic acid. 1:1 2,2,2-trifluoroacetate] | 1220 nM | 
Cn1c(-c2cn(-c3ccc(N)cn3)nc2C(F)(F)F)cnc1C(=O)Nc1ccc(C(=O)N2CCN(C(=O)CCC[N+](C)(CCCN)CC(=O)O)CC2)c(Cl)c1 (racemic) [Example 65, rac-3-aminopropyl-[4-[4-[4-[[5-[1-(5-amino-2-pyridyl)-3-(trifluoromethyl)pyrazol-4-yl]-1-methyl-imidazole-2-carbonyl]amino]-2-chloro-benzoyl]piperazino]-4-keto-butyl]-(carboxymethyl)-methyl-ammonium. 1:1 2,2,2-trifluoroacetate] | 720 nM | 
Cn1c(-c2cn(-c3ccc(NCCN)cn3)nc2C(F)(F)F)cnc1C(=O)Nc1ccc(C(=O)N2CCN(C(=O)[C@H]3CC[N@+](CC(=O)O)(CC4CNC4)CC3)CC2)c(Cl)c1 [Example 73, cis-2-[4-[4-[4-[[5-[1-[5-(2-aminoethylamino)-2-pyridyl]-3-(trifluoromethyl)pyrazol-4-yl]-1-methyl-imidazole-2-carbonyl]amino]-2-chloro-benzoyl]piperazine-1-carbonyl]-1-(azetidin-3-ylmethyl)piperidin-1-ium-1-yl]acetic acid; formic acid; formate] |  | 870 nM
Cn1c(-c2cn(-c3ccc(N)cc3F)nc2C(F)(F)F)cnc1C(=O)Nc1ccc(C(=O)N2CCN(C(=O)CCC[N+](CCCCN)(CCCCN)CC(=O)O)CC2)c(Cl)c1 [Example 11, bis(4-aminobutyl)-[4-[4-[4-[[5-[1-(4-amino-2-fluoro-phenyl)-3-(trifluoromethyl)pyrazol-4-yl]-1-methyl-imidazole-2-carbonyl]amino]-2-chloro-benzoyl]piperazino]-4-keto-butyl]-(carboxymethyl)ammonium. 1:1 2,2,2-trifluoroacetic acid. 1:1 2,2,2-trifluoroacetate] | 170 nM | 
Cn1c(-c2cn(-c3ccc(N)cn3)nc2C(F)(F)F)cnc1C(=O)Nc1ccc(C(=O)N2CCN(C(=O)CCC[N+](CCCN)(CCCN)CC(=O)O)CC2)c(Cl)c1 [Example 66, bis(3-aminopropyl)-[4-[4-[4-[[5-[1-(5-amino-2-pyridyl)-3-(trifluoromethyl)pyrazol-4-yl]-1-methyl-imidazole-2-carbonyl]amino]-2-chloro-benzoyl]piperazino]-4-keto-butyl]-(carboxymethyl)ammonium. 1:1 2,2,2-trifluoroacetate] |  | 720 nM

Other lines, results leading:

IC90 [1] | IC90 | Structure (SMILES)
168 nM |  | Cn1c(-c2cn(-c3cc4[nH]cc(CCO)c4cn3)nc2C(F)(F)F)cnc1C(=O)Nc1ccc(C(=O)N2CCN(C(=O)[C@H]3CC[N@+](CC(=O)O)(CC4CNC4)CC3)CC2)c(Cl)c1 [Example 194, cis-2-[1-(azetidin-3-ylmethyl)-4-[4-[2-chloro-4-[[5-[1-[3-(2-hydroxyethyl)-1H-pyrrolo[3,2-c]pyridin-6-yl]-3-(trifluoromethyl)pyrazol-4-yl]-1-methyl-imidazole-2-carbonyl]amino]benzoyl]piperazine-1-carbonyl]piperidin-1-ium-1-yl]acetic acid. 1:1 2,2,2-trifluoroacetate]
231 nM |  | Cn1c(-c2cn(-c3ccc(N4CC[C@H](N)C4)cn3)nc2C(F)(F)F)cnc1C(=O)Nc1ccc(C(=O)N2CCN(C(=O)[C@H]3CC[N@+](CC(=O)O)(CC4CNC4)CC3)CC2)c(Cl)c1 [Example 202, cis-2-[4-[4-[4-[[5-[1-[5-[(3S)-3-aminopyrrolidin-1-yl]-2-pyridyl]-3-(trifluoromethyl)pyrazol-4-yl]-1-methyl-imidazole-2-carbonyl]amino]-2-chloro-benzoyl]piperazine-1-carbonyl]-1-(azetidin-3-ylmethyl)piperidin-1-ium-1-yl]acetic acid;formate]
